Laboratory results published in patent US9266876B2 (Actelion Pharmaceuticals Ltd., priority 2012, dated 2016).
Read-outs that look alike come from different tables or passages of the source.

Assays:
[1] = biological target: CXCR3 (Homo sapiens (Human), UniProt P49682); test: Receptor internalization assay; type: cell-based
How it was run: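 In human whole blood, compounds were incubated with CXCL10 (9 nM final) for 30 min at 37 °C to drive receptor internalization, then stained with anti-CXCR3/CD3 antibodies and lysed of red cells. Flow cytometry measured mean surface CXCR3 fluorescence on CD3+ cells, and IC50 came from single-site dose-response fits.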

[2] = biological target: human CXCR3A (Homo sapiens (Human), UniProt P49682); test: FLIPR assay; type: cell-based; conditions: CHO-K1 cells expressing the human CXCR3A coupled to Galpha(16); CXCL10 agonist 20 nM; Fluo-4-AM fluorescence; mean values if determined several times
How it was run: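 CHO-K1 cells expressing CXCR3A coupled to Gα16 were loaded with Fluo-4-AM for 1 h in Hepes-buffered HBSS, pH 7.4, with 5 mM probenecid. Compound dilutions were added on the FLIPR, followed by CXCL10 (added as a 20 nM solution). Baseline-subtracted peak fluorescence was fitted to a single-site curve for IC50.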

[3] = human whole blood, final CXCL10 concentration 9 nM, 30 min 37° C., CXCR3 cell surface expression on CD3 positive cells, flow cytometer, read-out: Internalization IC50

CXCR3, sequence (P49682 whole entry): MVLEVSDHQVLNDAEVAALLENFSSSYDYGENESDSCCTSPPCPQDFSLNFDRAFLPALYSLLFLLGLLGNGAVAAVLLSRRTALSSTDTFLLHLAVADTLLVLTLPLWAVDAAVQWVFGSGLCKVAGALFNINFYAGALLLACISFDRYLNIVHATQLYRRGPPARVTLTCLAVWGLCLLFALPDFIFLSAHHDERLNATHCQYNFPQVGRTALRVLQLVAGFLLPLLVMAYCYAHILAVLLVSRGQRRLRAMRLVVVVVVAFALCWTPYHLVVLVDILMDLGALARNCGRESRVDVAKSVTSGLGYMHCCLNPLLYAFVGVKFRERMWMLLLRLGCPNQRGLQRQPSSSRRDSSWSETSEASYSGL
human CXCR3A, sequence (P49682 whole entry): as above

| IC50 [1, 3] [nM] | IC50 [2] [nM] | Compound | IC50 [1] [nM] | IC50 ([1]; read-out: Internalization IC50) [nM] |
| --- | --- | --- | --- | --- |
| 317 | 1 | C[C@@H]1CN(c2scnc2-c2nc3cc(C(F)(F)F)ccc3[nH]2)CCN1C(=O)Cn1cnc2cccnc21 [Example 92, 2-Imidazo[4,5-b]pyridin-3-yl-1-{(R)-2-methyl-4-[4-(5-trifluoromethyl-1H-benzoimidazol-2-yl)-thiazol-5-yl]-piperazin-1-yl}-ethanone] |  |  |
| 3360 | 198 | Cc1nc2ccccc2n1CC(=O)N1CCN(c2scnc2-c2nc3ccccc3[nH]2)CC1 [Example 2, 1-{4-[4-(1H-Benzoimidazol-2-yl)-thiazol-5-yl]-piperazin-1-yl}-2-(2-methyl-benzoimidazol-1-yl)-ethanone] |  |  |
| 5680 | 45 | Cc1ccc(-c2nc(-c3nc4ccccc4[nH]3)c(N3CCN(C(=O)Cn4cnc5cccnc54)[C@H](C)C3)s2)cc1 [Example 150, 1-{(R)-4-[4-(1H-Benzoimidazol-2-yl)-2-p-tolyl-thiazol-5-yl]-2-methyl-piperazin-1-yl}-2-imidazo[4,5-b]pyridin-3-yl-ethanone] |  |  |
| 3900 | 3 | O=C(Cn1ccc2cccnc21)N1CCCN(c2scnc2-c2nc3ccccc3[nH]2)CC1 [Example 44, 1-{4-[4-(1H-Benzoimidazol-2-yl)-thiazol-5-yl]-[1,4]diazepan-1-yl}-2-pyrrolo[2,3-b]pyridin-1-yl-ethanone] |  |  |
| 3090 | 58 | C[C@@H]1CN(c2sc(C(F)(F)F)nc2-c2nc3ccc(CN4CCCCC4)cc3[nH]2)CCN1C(=O)Cn1cccn1 [Example 181, 1-{(R)-2-Methyl-4-[4-(6-piperidin-1-ylmethyl-1H-benzoimidazol-2-yl)-2-trifluoromethyl-thiazol-5-yl]-piperazin-1-yl}-2-pyrazol-1-yl-ethanone] |  |  |
| 4490 | 24 | C[C@@H]1CN(c2sc(-c3ccccc3F)nc2-c2nc3ccccc3[nH]2)CCN1C(=O)Cn1cnc2cccnc21 [Example 148, 1-{(R)-4-[4-(1H-Benzoimidazol-2-yl)-2-(2-fluoro-phenyl)-thiazol-5-yl]-2-methyl-piperazin-1-yl}-2-imidazo[4,5-b]pyridin-3-yl-ethanone] |  |  |
| 2710 | 8 | Cc1nnc(CC(=O)N2CCN(c3sc(C(F)(F)F)nc3-c3nc4ccccc4[nH]3)C[C@H]2C)o1 [Example 195, 1-{(R)-4-[4-(1H-Benzoimidazol-2-yl)-2-trifluoromethyl-thiazol-5-yl]-2-methyl-piperazin-1-yl}-2-(5-methyl-[1,3,4]oxadiazol-2-yl)-ethanone] |  |  |
| 851 | 4 | CC[C@@H]1CN(c2scnc2-c2nc3ccccc3[nH]2)CCN1C(=O)Cn1cnc2cccnc21 [Example 49, 1-{(R)-4-[4-(1H-Benzoimidazol-2-yl)-thiazol-5-yl]-2-ethyl-piperazin-1-yl}-2-imidazo[4,5-b]pyridin-3-yl-ethanone] |  |  |
| 1440 | 15 | COC1CCN(Cc2ccc3nc(-c4nc(C(F)(F)F)sc4N4CCN(C(=O)Cn5cccn5)[C@H](C)C4)[nH]c3c2)C1 (stereo partly drawn) [Example 183, 1-((R)-4-{4-[6-(3-Methoxy-pyrrolidin-1-ylmethyl)-1H-benzoimidazol-2-yl]-2-trifluoromethyl-thiazol-5-yl}-2-methyl-piperazin-1-yl)-2-pyrazol-1-yl-ethanone] |  |  |
| 1040 | 2 | Cn1c(=O)n(CC(=O)N2CCN(c3scnc3-c3nc4ccc(OC(F)(F)F)cc4[nH]3)CC2)c2ccccc21 [Example 74, 1-Methyl-3-(2-oxo-2-{4-[4-(6-trifluoromethoxy-1H-benzoimidazol-2-yl)-thiazol-5-yl]-piperazin-1-yl}-ethyl)-1,3-dihydro-benzoimidazol-2-one] |  |  |
| 181 | 1 | C[C@@H]1CN(c2scnc2-c2nc3ccc(C4CC4)cc3[nH]2)CCN1C(=O)Cn1cnc2cccnc21 [Example 162, 1-{(R)-4-[4-(6-Cyclopropyl-1H-benzoimidazol-2-yl)-thiazol-5-yl]-2-methyl-piperazin-1-yl}-2-imidazo[4,5-b]pyridin-3-yl-ethanone] |  |  |
| 3820 | 4 | C[C@@H]1CN(c2scnc2-c2nc3ccccc3[nH]2)CCN1C(=O)Cn1cc(-c2ccccc2)nn1 [Example 188, 1-{(R)-4-[4-(1H-Benzoimidazol-2-yl)-thiazol-5-yl]-2-methyl-piperazin-1-yl}-2-(4-phenyl-[1,2,3]triazol-1-yl)-ethanone] |  |  |
| 566 | 0.5 | C[C@@H]1CN(c2scnc2-c2nc3cc(F)ccc3[nH]2)CCN1C(=O)Cn1cnc2cccnc21 [Example 96, 1-{(R)-4-[4-(5-Fluoro-1H-benzoimidazol-2-yl)-thiazol-5-yl]-2-methyl-piperazin-1-yl}-2-imidazo[4,5-b]pyridin-3-yl-ethanone] |  |  |
| 363 | 0.2 | C[C@@H]1CN(c2scnc2-c2nc3ccccc3[nH]2)CCN1C(=O)Cn1ccc2ccncc21 [Example 141, 1-{(R)-4-[4-(1H-Benzoimidazol-2-yl)-thiazol-5-yl]-2-methyl-piperazin-1-yl}-2-pyrrolo[2,3-c]pyridin-1-yl-ethanone] |  |  |
| 116 | 1 | Cc1cc(C)n(CC(=O)N2CCN(c3sc(C(F)(F)F)nc3-c3nc4ccccc4[nH]3)C[C@H]2C)n1 [Example 192, 1-{(R)-4-[4-(1H-Benzoimidazol-2-yl)-2-trifluoromethyl-thiazol-5-yl]-2-methyl-piperazin-1-yl}-2-(3,5-dimethyl-pyrazol-1-yl)-ethanone] |  |  |
| 3080 | 30 | O=C(Cn1cnc2ccccc21)N1CCN(c2scnc2-c2nc3ccccc3[nH]2)CC1 [Example 1, 2-Benzoimidazol-1-yl-1-{4-[4-(1H-benzoimidazol-2-yl)-thiazol-5-yl]-piperazin-1-yl}-ethanone] |  |  |
| 685 | 0.3 | C[C@@H]1CN(c2sc(C(F)(F)F)nc2-c2nc3cccnc3[nH]2)CCN1C(=O)Cn1cnc2cccnc21 [Example 169, 2-Imidazo[4,5-b]pyridin-3-yl-1-{(R)-4-[4-(3H-imidazo[4,5-b]pyridin-2-yl)-2-trifluoromethyl-thiazol-5-yl]-2-methyl-piperazin-1-yl}-ethanone] |  |  |
| 1060 | 6 | C[C@@H]1CN(c2sc(C(F)(F)F)nc2-c2nc3ccncc3[nH]2)CCN1C(=O)Cn1cnc2cccnc21 [Example 170, 2-Imidazo[4,5-b]pyridin-3-yl-1-{(R)-4-[4-(3H-imidazo[4,5-c]pyridin-2-yl)-2-trifluoromethyl-thiazol-5-yl]-2-methyl-piperazin-1-yl}-ethanone] |  |  |
| 2620 | 19 | Cc1cc(C)nc(CC(=O)N2CCN(c3sc(C(F)(F)F)nc3-c3nc4ccccc4[nH]3)C[C@H]2C)c1 [Example 220] |  |  |
| 53 | 0.2 | Cc1ccn(CC(=O)N2CCN(c3sc(C(F)(F)F)nc3-c3nc4ccccc4[nH]3)C[C@H]2C)n1 [Example 174, 1-{(R)-4-[4-(1H-Benzoimidazol-2-yl)-2-trifluoromethyl-thiazol-5-yl]-2-methyl-piperazin-1-yl}-2-(3-methyl-pyrazol-1-yl)-ethanone] |  |  |
| 2240 | 27 | C[C@@H]1CN(c2sc(C(F)(F)F)nc2-c2nc3ccc(CN(C)C)cc3[nH]2)CCN1C(=O)Cn1cccn1 [Example 182, 1-{(R)-4-[4-(6-Dimethylaminomethyl-1H-benzoimidazol-2-yl)-2-trifluoromethyl-thiazol-5-yl]-2-methyl-piperazin-1-yl}-2-pyrazol-1-yl-ethanone] |  |  |

| Compound | IC50 [1, 3] [nM] | IC50 [2] [nM] | IC50 [1] [nM] | IC50 ([1]; read-out: Internalization IC50) [nM] |
| --- | --- | --- | --- | --- |
| Cc1nc(C)n(CC(=O)N2CCN(c3sc(C(F)(F)F)nc3-c3nc4ccc(C5CCNCC5)cc4[nH]3)C[C@H]2C)n1 [Example 240, 2-(3,5-Dimethyl-[1,2,4]triazol-1-yl)-1-{(R)-2-methyl-4-[4-(6-piperidin-4-yl-1H-benzoimidazol-2-yl)-2-trifluoromethyl-thiazol-5-yl]-piperazin-1-yl}-ethanone] | 222 | 2 |  |  |
| C[C@@H]1CN(c2sc(C(F)(F)F)nc2-c2nc3ccccc3[nH]2)CCN1C(=O)Cc1cccc2cccnc12 [Example 190, 1-{(R)-4-[4-(1H-Benzoimidazol-2-yl)-2-trifluoromethyl-thiazol-5-yl]-2-methyl-piperazin-1-yl}-2-quinolin-8-yl-ethanone] | 514 | 1 |  |  |
| C[C@@H]1CN(c2sc(C(F)(F)F)nc2-c2nc3cc(Cl)ccc3[nH]2)CCN1C(=O)Cn1cnc2cccnc21 [Example 147, 1-{(R)-4-[4-(5-Chloro-1H-benzoimidazol-2-yl)-2-trifluoromethyl-thiazol-5-yl]-2-methyl-piperazin-1-yl}-2-imidazo[4,5-b]pyridin-3-yl-ethanone] |  | 1 | 39 |  |
| Cc1nc(C)n(CC(=O)N2CCN(c3sc(C(F)(F)F)nc3-c3nc4ccc(C5CCN(C)CC5)cc4[nH]3)C[C@H]2C)n1 [Example 237, 2-(3,5-Dimethyl-[1,2,4]triazol-1-yl)-1-((R)-2-methyl-4-{4-[6-(1-methyl-piperidin-4-yl)-1H-benzoimidazol-2-yl]-2-trifluoromethyl-thiazol-5-yl}-piperazin-1-yl)-ethanone] |  | 2 |  | 84 |
| Cc1nc(C)n(CC(=O)N2CCN(c3sc(C(F)(F)F)nc3-c3nc4ccc(C5CCOCC5)cc4[nH]3)C[C@H]2C)n1 [Example 238, 2-(3,5-Dimethyl-[1,2,4]triazol-1-yl)-1-((R)-2-methyl-4-{4-[6-(tetrahydro-pyran-4-yl)-1H-benzoimidazol-2-yl]-2-trifluoromethyl-thiazol-5-yl}-piperazin-1-yl)-ethanone] | 103 | 1 |  |  |
